Consider 34 molecules from ChEMBL document CHEMBL1152223, “Analogues of 2-phenyl-ethenesulfonic acid phenyl ester have dual functions of inhibiting expression of inducible nitric oxide synthase and activating peroxisome proliferator-activated receptor gamma” (Bioorg Med Chem Lett, 2008).

Data set [1] has as its system RAW264.7. The data set is described as follows: Suppression of LPS/IFN-gamma-stimulated NO production in mouse RAW264.7 cells. Format: functional, cell-based.
Data set [2] in a line: Cytotoxicity against mouse RAW264.7 cells. Format: cell-based.
Data set [3] has as its target T1, Peroxisome proliferator-activated receptor gamma (Homo sapiens, UniProt P37231).
T1 sequence (P37231 whole entry): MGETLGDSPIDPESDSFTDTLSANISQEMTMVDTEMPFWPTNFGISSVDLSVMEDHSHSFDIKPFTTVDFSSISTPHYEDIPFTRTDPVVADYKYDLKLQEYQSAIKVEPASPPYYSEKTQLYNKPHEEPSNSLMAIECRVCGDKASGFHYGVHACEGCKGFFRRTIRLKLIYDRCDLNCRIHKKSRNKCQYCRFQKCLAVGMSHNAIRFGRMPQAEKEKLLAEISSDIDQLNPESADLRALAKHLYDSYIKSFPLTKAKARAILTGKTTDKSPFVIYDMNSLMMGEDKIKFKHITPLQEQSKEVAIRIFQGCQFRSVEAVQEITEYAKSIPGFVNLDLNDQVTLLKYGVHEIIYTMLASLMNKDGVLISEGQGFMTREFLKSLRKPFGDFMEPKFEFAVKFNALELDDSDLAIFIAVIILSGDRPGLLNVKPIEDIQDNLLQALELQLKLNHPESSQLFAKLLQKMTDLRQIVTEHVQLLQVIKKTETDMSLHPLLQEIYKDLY
As to the kind of experiment: Displacement of [3H]BRL49653 from PPARgamma ligand binding domain by scintillation proximity assay.

Data set [4] concerns RAW264.7. The data set is described as follows: Inhibition of iNOS expression in LPS/IFN-gamma-stimulated mouse RAW264.7 cells at 10 uM. Format: functional, cell-based.
In data set [5] the test system is RAW264.7. The data set is described as follows: Inhibition of iNOS expression in LPS/IFN-gamma-stimulated mouse RAW264.7 cells at 5 uM. In kind it is functional, cell-based.
The test system of data set [6] is RAW264.7. The data set is described as follows: Suppression of LPS/IFN-gamma-stimulated NO production in mouse RAW264.7 cells at 10 uM. In kind it is functional.

Active and inactive are the calls of the source. No cut-off for these calls is given here. A value given as a limit tells only on which side of the number the result lay.

`Cc1cccc(OS(=O)(=O)/C=C/c2ccccc2)c1`: the IC50 (as a rule, the concentration needed to halve the response being measured) came to 3.45 µM in data set [1] and 1.19 µM in data set [3]. Besides, the GI50 (in general, the concentration giving 50% growth inhibition) in data set [2] was determined as 62.5 µM.
With `O=S(=O)(/C=C/c1ccccc1)Oc1ccc(OCc2ccccc2)cc1`, the IC50 in data set [1] stood at 9.3 µM; in data set [3], 0.703 µM. This molecule yielded a GI50 in data set [2] above 80 µM. Besides, the outcome in data set [4] and in data set [5] was Active.
Regarding `O=S(=O)(Cc1ccccc1)Oc1ccccc1` [PHENYL PHENYLMETHANESULFONATE], in data set [6], the Activity stood at 3%.
As to `COc1ccc(OS(=O)(=O)/C=C/c2ccccc2)cc1`, the IC50 in data set [1] is 7.45 µM; in data set [3], 1.29 µM.
In data set [6], `O=C(O)c1cccc(NS(=O)(=O)/C=C/c2ccccc2)c1` registered an Activity of 1%.
The molecule `O=S(=O)(/C=C/c1ccccc1)Nc1ccccc1` gave an Activity in data set [6] of 4%.
In the case of `O=S(=O)(/C=C/c1ccccc1)Oc1cccc(Oc2ccccc2)c1`, the IC50 was 16.2 µM in data set [1] and 0.382 µM in data set [3]. The molecule also had a GI50 in data set [2] above 80 µM.
As to `O=S(=O)(/C=C/c1ccccc1)Oc1c(Cl)cc(Cl)cc1Cl`, the figures for the IC50 in data set [1] and in data set [3] were 1.83 µM and 1.44 µM, respectively. Moreover, the GI50 in data set [2] is above 80 µM. In addition, the result in data set [4] and in data set [5] was Active.
Take `CC(=O)Nc1ccc(OS(=O)(=O)/C=C/c2ccccc2)cc1`: the IC50 in data set [1] turned out to be 19.9 µM; in data set [3], 10.7 µM. In data set [2], this molecule registered a concentration for 50% growth inhibition (GI50) above 80 µM.
`Cc1ccc(NS(=O)(=O)/C=C/c2ccccc2)cc1` came in with an Activity in data set [6] of 8%.
The molecule `COc1ccc(NS(=O)(=O)/C=C/c2ccccc2)cc1` displayed an Activity in data set [6] of 5%.
Regarding `O=S(=O)(/C=C/c1ccccc1)Oc1ccccc1`, the IC50 in data set [1] came to 6.66 µM; in data set [3], 1.33 µM. This molecule also registered a GI50 in data set [2] above 80 µM. In addition, the outcome in data set [4] and in data set [5] was Active.
In data set [6], `Cc1cccc(OS(=O)(=O)CCc2ccccc2)c1` registered an Activity of 0%.
Consider `CN(CCOc1ccc(CC2SC(=O)NC2=O)cc1)c1ccccn1` (stereo unspecified) [ROSIGLITAZONE], for which the IC50 in data set [1] is 17.5 µM.
`O=S(=O)(CCc1ccccc1)Oc1ccc2ccccc2c1`: the Activity in data set [6] stood at 6%.
In data set [6], `O=S(=O)(Cc1ccccc1)Oc1ccccc1Cl` showed an Activity of 0%.
With `O=S(=O)(CCc1ccccc1)Oc1c(Cl)cc(Cl)cc1Cl`, in data set [6], the Activity was determined as 10%.
Turning to `O=S(=O)(Cc1ccccc1)Oc1ccc2ccccc2c1`, the Activity in data set [6] is 7%.
In data set [6], `CCOc1ccc(NS(=O)(=O)/C=C/c2ccccc2)cc1` gave an Activity of 0%.
Molecule `O=C(O)c1ccc(NS(=O)(=O)/C=C/c2ccccc2)cc1` registered an Activity in data set [6] of 2%.
Same read-out and setting: the figure for `NS(=O)(=O)c1ccc(NS(=O)(=O)/C=C/c2ccccc2)cc1` is 0%.
On the same count and under the same terms, the figure for `O=S(=O)(/C=C/c1ccccc1)Nc1ccc(Br)cc1` is 5%; for `O=S(=O)(CCc1ccccc1)Oc1ccc(Cl)cc1` it is 4%.
Turning to `O=S(=O)(/C=C/c1ccccc1)Oc1ccc2ccccc2c1`, the IC50 in data set [1] amounted to 6.18 µM; in data set [3] it was 1.09 µM. The GI50 in data set [2] is above 80 µM.
`O=Cc1ccc(OS(=O)(=O)/C=C/c2ccccc2)cc1`: the IC50 amounted to 9.72 µM in data set [1] and 2.1 µM in data set [3]. Also, the GI50 in data set [2] is above 80 µM. Besides, the outcome in data set [4] and in data set [5] was Active.
For `O=S(=O)(/C=C/c1ccccc1)Oc1ccc(Cl)cc1`, the IC50 turned out to be 2.35 µM in data set [1] and 0.302 µM in data set [3]. The molecule further displayed a GI50 in data set [2] of 75.3 µM.
In data set [6], `CCS(=O)(=O)Oc1cccc(Oc2ccccc2)c1` showed an Activity of 11%.
Regarding `O=S(=O)(CCc1ccccc1)Oc1ccccc1`, the Activity in data set [6] turned out to be 2%.
Molecule `COc1cccc(NS(=O)(=O)/C=C/c2ccccc2)c1` came in with an Activity in data set [6] of 12%.
For `CCCCC/C=C/C=C1/C(=O)C=C[C@@H]1C/C=C\CCCC(=O)O`, 2.2 µM corresponded to half-maximal inhibition in data set [1] (IC50). Besides, the outcome in data set [4] and in data set [5] was Active.
With `CCOC(=O)c1ccc(OS(=O)(=O)/C=C/c2ccccc2)cc1`, the IC50 was 9.88 µM in data set [1] and 0.747 µM in data set [3]. For the same molecule, in data set [2], the GI50 is above 80 µM.
For `O=C(O)c1cccc(OS(=O)(=O)/C=C/c2ccccc2)c1`, in that order: 21.6 µM, 13.5 µM and above 80 µM.
Consider `O=C(O)c1cccc(OS(=O)(=O)CCc2ccccc2)c1`, for which, in data set [6], the Activity was determined as 6%.
For `Cc1ccc(OS(=O)(=O)/C=C/c2ccccc2)cc1`, the values for the 50% inhibitory concentration (IC50) in data set [1] and in data set [3] were 2.77 µM and 0.407 µM, respectively. The GI50 in data set [2] is above 80 µM. The result in data set [4] and in data set [5] was Active.
